Source: patent US20090093069A1, “Topiramate Immunoassays” (ARK Diagnostics, Inc., priority 2007, published 2009)
Like-named read-outs stand apart in the source and are kept apart here.

Experiments:
[1] = cited from earlier work
serum proteins = conditions: cited from earlier work
[2] = test system: patients with drug refractory (mostly partial) epilepsy; conditions: Stephen et al. (2000), 170 patients, cited from earlier work
[3] = test system: rabbit polyclonal antibody #11341; test: ARK homogeneous enzyme immunoassay, topiramate calibration curve on HITACHI 917; format: binding; conditions: conjugate 12-G6PDH
Description: Rabbit polyclonal antibody […] was used to generate a calibration curve, and evaluate assay precision, accuracy and specificity. The antibody was added into the antibody diluent to prepare the antibody reagent. The antibody reagent consists of antibody as prepared above, buffer, stabilizers, preservatives, and the substrates for the enzyme conjugate NAD and glucose 6 phosphate. Enzyme conjugate comprising compound (12-G6PDH) G6PDH was added into the conjugate reagent to prepare the enzyme conjugate reagent. The enzyme conjugate reagent consists of the conjugate, buffer, stabilizers and preservatives. Enzyme conjugate (12-G6PDH) was used with rabbit polyclonal antibody #11341 in examples below. This technique is generally applicable to produce polyclonal antibodies to diacetonefructose derivatives and assess their utility.
The diacetonefructose derivative antibodies and enzyme conjugates may be advantageously used in a homogeneous assay format to detect topiramate in samples. An enzyme immunoassay or ARK Assay, which is a homogeneous enzyme immunoassay experiment, is performed to test the polyclonal antibodies prepared as in Example 17. The ARK Assay for topiramate is conducted using a liquid, ready-to-use, two-reagent kit. A clinical chemistry analyzer useful to set up the assay is HITACHI 917. The HITACHI 917 is an automated biochemistry analyser used by medical laboratories to process biological fluid specimens, such as urine, cerebrospinal fluid, and most commonly, blood. Manufactured by Boehringer Mannheim, the HITACHI 917 is a commonly used routine chemical bichromatic analyzer. Topiramate containing sample is incubated with antibody reagent followed by the addition of the enzyme conjugate reagent. The enzyme conjugate activity decreases upon binding to the antibody. The enzyme conjugate, which is not bound to the antibody, catalyzes the oxidation of glucose 6-phosphate (G6P). The oxidation of G6P is coupled with the reduction of NAD^+ to NADH, which can be measured at 340 nm. The change in the absorbance at 340 nm can be measured spectrophotometrically. The topiramate concentration in a specimen can be measured in terms of G6PDH activity. The increase in the rate at 340 nm is due to the formation of NADH and is proportional to the enzyme conjugate activity. An assay calibration curve is generated using topiramate spiked into negative calibrator matrix (See Example 19 below). The assay rate increases with increasing the concentration of drug in the sample.
Topiramate was dissolved in methanol to give a stock solution of 1000 μg/mL. Pooled human serum was aliquoted in 10 mL portions. Topiramate stock solution was added to the aliquots of human serum in preparing a series of known concentrations of topiramate calibrators ranging from 0 to 60 μg/mL. Similarly, Quality Control samples were prepared (2.0, 10.0 and 40.0 μg/mL). Antibody Reagent was prepared by adding antibody […] to antibody/substrate diluent. The antibody/substrate reagent was assayed with Enzyme Conjugate Reagent (12-G6PDH). Calibration curves were generated on the HITACHI 917 automated clinical chemistry analyzer, as described in Example 18 by assaying each level in duplicate.

[4] = cited from earlier work; for mean topiramate serum concentration: Lhatoo et al. (2000); for topiramate concentrations: May et al. (2002)
[5] = test system: antibodies raised with immunogens (10-KLH, 12-KLH, 12-L-KLH, 19-KLH, 22-KLH and 25-KLH); test: Enzyme-based assay format, reactivity of antibodies raised with the immunogens; format: binding
Text: All the prepared haptens have utility for KLH and G6PDH bio-conjugation. immunogens (10-KLH, 12-KLH, 12-L-KLH, 19-KLH, 22-KLH and 25-KLH) were used to raise antibodies.

[6] = dose escalation add-on studies, morning serum concentrations

Question: What does the source list for `CC1(C)O[C@@H]2[C@@H](CO[C@@]3(COS(N)(=O)=O)OC(C)(C)O[C@@H]23)O1` [Topiramate, 2,3:4,5-bis-O-(1-methylethylidene)-β-D-fructopyranose sulfamate]?
Answer: change of serum topiramate concentrations ([1]; clearance decreased by propranolol, amitriptyline, lithium, and sumatriptan): slightly increased; Tmax ([1]; following oral ingestion): 2 to 4 h; bioavailability ([1]; following oral ingestion): 81-95%; Vd ([1]; human, in vivo): 0.6 to 1 L/kg; fraction of the dose metabolized ([1]; human, in vivo): Approximately 50%; serum half-life ([1]; human, in vivo): 20 to 30 h; half-life ([1]; patients co-prescribed enzyme-inducing AEDs): about 12 h; lowering of topiramate concentrations ([1]; with valproic acid): 10-15%; bound to serum proteins (serum proteins): 15%; patients with favorable response ([2]; wide range of doses and serum concentrations): 70%; patients becoming seizure-free [2]: 23%; Reaction Rate (mA/min) Average of Duplicates ([3]; topiramate calibrator 3.5 μg/mL in human serum): 406.0 mA/min; Reaction Rate (mA/min) Average of Duplicates ([3]; topiramate calibrator 7.5 μg/mL in human serum): 442.4 mA/min; Reaction Rate (mA/min) Average of Duplicates ([3]; topiramate calibrator 15.0 μg/mL in human serum): 478.3 mA/min; Reaction Rate (mA/min) Average of Duplicates ([3]; topiramate calibrator 30.0 μg/mL in human serum): 511.6 mA/min; Reaction Rate (mA/min) Average of Duplicates ([3]; topiramate calibrator 60.0 μg/mL in human serum): 542.4 mA/min; serum concentrations at which optimal response is most likely ([4]; Christensen et al. (2003), concentration-controlled trial): 2000 to 10000 ng/mL; serum topiramate concentrations ([4]; Johannessen et al. (2003), patients treated with therapeutic doses, most studies): 5 to 20 mg/L; mean topiramate serum concentration ([4]; patients in whom topiramate was stopped because of adverse effects): 6 mg/L; mean topiramate serum concentration ([4]; responders): 7 mg/L; mean topiramate serum concentration ([4]; seizure-free patients): 9 mg/L; topiramate concentrations ([4]; considerably higher doses (up to 2000 mg/day)): ≤ 27 mg/L; topiramate concentrations ([4]; doses of 125-400 mg in addition to other AEDs): 2.4 to 8 mg/L; serum topiramate concentrations in patients with improvement (trend) ([4]; Penovich et al. (1997), compared with those without seizure reduction): > 10 mg/L; systemic topiramate concentrations ([4]; considerably higher doses, up to 2000 mg): ≤ 80 µmol·L; serum concentrations at which a reduction in seizure control was seen [4, 6]: greater than 75 μmol/L; serum concentrations with significant increase in side effects [4, 6]: > 60 µM; reactivity of the antibodies [5]: good reactivity
